Test results published in ChEMBL document CHEMBL3407363, “Vitamin D3 analogues that contain modified A- and seco-B-rings as hedgehog pathway inhibitors” (Eur J Med Chem, 2015).
pIC50: −log10 of the molar value.

Tests used:
[1] = Inhibition of hedgehog signaling in mouse C3H10T1/2 cells assessed as reduction in Gli1 mRNA level at 5 uM after 24 hrs by quantitative PCR analysis relative to control; format: cell-based; conditions: C3H 10T1/2, values are per cent of control
[2] = Inhibition of hedgehog signaling in mouse C3H10T1/2 cells assessed as reduction in Gli1 mRNA level after 24 hrs by quantitative PCR analysis; format: cell-based; conditions: for inhibition: C3H 10T1/2; for pIC50: C3H 10T1/2, 24 h
[3] = biological target: T1, Vitamin D3 receptor (Homo sapiens) (UniProt P11473); assay: Binding affinity to full length human VDR by fluorescent displacement assay
T1 sequence (whole entry): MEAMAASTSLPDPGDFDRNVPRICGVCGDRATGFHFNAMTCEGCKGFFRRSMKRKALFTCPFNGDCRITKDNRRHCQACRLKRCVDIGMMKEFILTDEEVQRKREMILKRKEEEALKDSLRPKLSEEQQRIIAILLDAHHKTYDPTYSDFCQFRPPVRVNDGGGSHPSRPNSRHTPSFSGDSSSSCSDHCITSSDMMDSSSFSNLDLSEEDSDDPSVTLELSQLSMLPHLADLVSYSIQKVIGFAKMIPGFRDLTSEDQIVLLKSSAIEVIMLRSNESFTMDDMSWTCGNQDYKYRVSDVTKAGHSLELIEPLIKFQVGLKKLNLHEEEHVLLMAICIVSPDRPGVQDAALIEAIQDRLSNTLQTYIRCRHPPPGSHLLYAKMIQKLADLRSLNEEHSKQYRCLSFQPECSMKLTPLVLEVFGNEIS

Vitamin D3 receptor [4] = biological target: T2, Vitamin D3 receptor (Mus musculus, UniProt P48281); assay: Activation of VDR in mouse ASZ cells assessed as up-regulation of Cyp24A1 mRNA at 5 uM after 24 hrs by quantitative PCR analysis relative to control; format: ADME, cell-based
T2 sequence (P48281 whole entry): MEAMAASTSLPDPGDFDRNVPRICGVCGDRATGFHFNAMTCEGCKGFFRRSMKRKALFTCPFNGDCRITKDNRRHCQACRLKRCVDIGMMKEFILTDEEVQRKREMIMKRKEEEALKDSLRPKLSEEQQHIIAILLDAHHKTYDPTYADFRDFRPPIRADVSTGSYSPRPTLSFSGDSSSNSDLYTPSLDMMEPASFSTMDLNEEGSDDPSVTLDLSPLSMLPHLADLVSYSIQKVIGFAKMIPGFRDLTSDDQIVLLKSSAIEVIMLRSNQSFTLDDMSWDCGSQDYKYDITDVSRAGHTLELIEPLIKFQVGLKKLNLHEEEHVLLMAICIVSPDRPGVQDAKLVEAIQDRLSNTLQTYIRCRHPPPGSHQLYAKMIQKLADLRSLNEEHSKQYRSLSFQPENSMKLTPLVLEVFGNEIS

Vitamin D3 receptor [5] = biological target: T2, Vitamin D3 receptor; assay: Activation of VDR in mouse ASZ cells assessed as up-regulation of Cyp24A1 mRNA at 2.5 uM after 24 hrs by quantitative PCR analysis relative to control; format: ADME, cell-based

CC(C)CCC[C@@H](C)[C@H]1CC[C@H]2[C@H](O)CCC[C@]12C
response, % of control [1]: 74%

CC(C)CCC[C@@H](C)[C@H]1CC[C@H]2[C@@H](Nc3ccc(O)cc3)CCC[C@]12C
inhibition [2]: Dose-dependent effect
pIC50 [2]: 6.40
response, % of control [1]: 0.7%
K [3]: > 100 µM
Activity (Vitamin D3 receptor [4]): 2.7%

CC(C)CCC[C@@H](C)[C@H]1CC[C@@H]2[C@]1(C)CCC[C@@]2(O)c1cccc(O)c1
response, % of control [1]: 39.5%

CC(C)CCC[C@@H](C)[C@H]1CC[C@H]2[C@@H](OC(=O)CCc3cccc(O)c3)CCC[C@]12C
inhibition [2]: Dose-dependent effect
pIC50 [2]: 5.59
response, % of control [1]: 15.3%
K [3]: > 100 µM
Activity (Vitamin D3 receptor [4]): 7.6%

CC(C)CCC[C@@H](C)[C@H]1CC[C@H]2[C@H](c3cccc(O)c3)CCC[C@]12C
response, % of control [1]: 47.9%

CC(C)CCC[C@@H](C)[C@H]1CC[C@H]2C(=O)CCC[C@]12C
response, % of control [1]: 66.1%

CC(C)CCC[C@@H](C)[C@H]1CC[C@H]2[C@@H](OC(=O)/C=C/c3ccc(O)cc3)CCC[C@]12C
response, % of control [1]: 62.1%

CC(C)CCC[C@@H](C)[C@H]1CC[C@H]2[C@H](Nc3ccc(O)cc3)CCC[C@]12C
inhibition [2]: Dose-dependent effect
pIC50 [2]: 6.49
response, % of control [1]: 1.3%
K [3]: > 100 µM
Activity (Vitamin D3 receptor [4]): 3%

CC(C)CCC[C@@H](C)[C@H]1CC[C@H]2[C@@H](OC(=O)CCc3ccc(O)cc3)CCC[C@]12C
response, % of control [1]: 20.1%

CC(C)CCC[C@@H](C)[C@H]1CC[C@H]2[C@@H](NC(=O)c3cccc(O)c3)CCC[C@]12C
inhibition [2]: Dose-dependent effect
pIC50 [2]: 6.01
response, % of control [1]: 2.5%
K [3]: > 100 µM
Activity (Vitamin D3 receptor [4]): 1.8%

CC(C)CCC[C@@H](C)[C@H]1CC[C@H]2[C@@H](OC(=O)/C=C/c3ccccc3O)CCC[C@]12C
response, % of control [1]: 94.2%

CC(C)CCC[C@@H](C)[C@H]1CC[C@H]2[C@@H](OC(=O)c3cccc(O)c3)CCC[C@]12C
inhibition [2]: Dose-dependent effect
pIC50 [2]: 6.13
response, % of control [1]: 1.9%
K [3]: > 100 µM
Activity (Vitamin D3 receptor [4]): 1.9%

CC(C)CCC[C@@H](C)[C@H]1CC=C2[C@H](O)CCC[C@@]21C
response, % of control [1]: 90.1%

CC(C)CCC[C@@H](C)[C@H]1CC[C@H]2/C(=C/C(=O)Nc3ccc(O)cc3)CCC[C@]12C
inhibition [2]: Dose-dependent effect
pIC50 [2]: 5.92
response, % of control [1]: 1.8%
K [3]: > 100 µM
Activity (Vitamin D3 receptor [4]): 4.4%

C=C1CC[C@H](O)C/C1=C/C=C1\CCC[C@]2(C)[C@@H]([C@H](C)CCCC(C)C)CC[C@@H]12 [CHOLECALCIFEROL]
Activity (Vitamin D3 receptor [5]): 764%
inhibition [2]: Dose-dependent effect
pIC50 [2]: 5.39
response, % of control [1]: 35.7%
K [3]: > 100 µM

CC(C)CCC[C@@H](C)[C@H]1CC[C@H]2C(c3cccc(O)c3)=CCC[C@]12C
response, % of control [1]: 37.2%

CC(C)CCC[C@@H](C)[C@H]1CC[C@H]2[C@H](CO)CCC[C@]12C
response, % of control [1]: 55.1%

CC(C)CCC[C@@H](C)[C@H]1CC[C@H]2/C(=C/C(=O)Nc3ccccc3)CCC[C@]12C
response, % of control [1]: 41.7%

CC(C)CCC[C@@H](C)[C@H]1CC[C@H]2[C@@H](OC(=O)/C=C/c3cccc(O)c3)CCC[C@]12C
response, % of control [1]: 57.2%

CCOC(=O)/C=C1\CCC[C@]2(C)[C@@H]([C@H](C)CCCC(C)C)CC[C@@H]12
response, % of control [1]: 107%

CC(C)CCC[C@@H](C)[C@H]1CC[C@H]2[C@H](CCO)CCC[C@]12C
inhibition [2]: Dose-dependent effect
pIC50 [2]: 5.62
response, % of control [1]: 2.8%
K [3]: > 100 µM
Activity (Vitamin D3 receptor [4]): 1.3%

CC(C)CCC[C@@H](C)[C@H]1CC[C@H]2/C(=C/C(=O)Nc3ccccc3O)CCC[C@]12C
inhibition [2]: Dose-dependent effect
pIC50 [2]: 5.82
response, % of control [1]: 1.1%
K [3]: > 100 µM
Activity (Vitamin D3 receptor [4]): 14%

CC(C)CCC[C@@H](C)[C@H]1CC[C@H]2/C(=N/O)CCC[C@]12C
response, % of control [1]: 86.1%

CC(C)CCC[C@@H](C)[C@H]1CC[C@H]2[C@@H](Nc3ccccc3O)CCC[C@]12C
inhibition [2]: Dose-dependent effect
pIC50 [2]: 5.92
response, % of control [1]: 2%
K [3]: > 100 µM
Activity (Vitamin D3 receptor [4]): 4.4%

CC(C)CCC[C@@H](C)[C@H]1CC[C@H]2/C(=C/CO)CCC[C@]12C
response, % of control [1]: 15.1%

CC(C)CCC[C@@H](C)[C@H]1CC[C@H]2[C@@H](Nc3cccc(O)c3)CCC[C@]12C
inhibition [2]: Dose-dependent effect
pIC50 [2]: 6.00
response, % of control [1]: 11.6%
K [3]: > 100 µM
Activity (Vitamin D3 receptor [4]): 1.8%

CC(C)CCC[C@@H](C)[C@H]1CC[C@H]2[C@H](OC(=O)c3cccc(O)c3)CCC[C@]12C
inhibition [2]: Dose-dependent effect
pIC50 [2]: 5.41
response, % of control [1]: 30.6%
K [3]: > 100 µM
Activity (Vitamin D3 receptor [4]): 1.6%

CC(C)CCC[C@@H](C)[C@H]1CC[C@H]2[C@H](C(=O)c3cccc(O)c3)CCC[C@]12C
inhibition [2]: Dose-dependent effect
pIC50 [2]: 5.74
response, % of control [1]: 11%
K [3]: > 100 µM
Activity (Vitamin D3 receptor [4]): 7.8%

CC(C)CCC[C@@H](C)[C@H]1CC[C@H]2/C(=C/C(=O)Nc3cccc(O)c3)CCC[C@]12C
inhibition [2]: Dose-dependent effect
pIC50 [2]: 6.00
response, % of control [1]: 12.1%
K [3]: > 100 µM
Activity (Vitamin D3 receptor [4]): 4.5%

CC(C)CCC[C@@H](C)[C@H]1CC[C@H]2[C@@H](OC(=O)Cc3cccc(O)c3)CCC[C@]12C
inhibition [2]: Dose-dependent effect
pIC50 [2]: 6.10
response, % of control [1]: 1.8%
K [3]: > 100 µM
Activity (Vitamin D3 receptor [4]): 3.5%

CC(C)CCC[C@@H](C)[C@H]1CC[C@@H]2[C@@H](O)CCC[C@]12C
response, % of control [1]: 48.7%

CC(C)CCC[C@@H](C)[C@H]1CC[C@H]2[C@@H](O)CCC[C@]12C
response, % of control [1]: 46.4%

CC(C)CCC[C@@H](C)[C@H]1CC[C@H]2[C@@H](OC(=O)CCc3ccccc3O)CCC[C@]12C
response, % of control [1]: 47.4%

CC(C)CCC[C@@H](C)[C@H]1CC=C2C(=O)CCC[C@@]21C
response, % of control [1]: 63.4%
